By IC50 is commonly meant the midpoint of a concentration-inhibition curve. Higher therefore signals a need for much substance.

This note sets out measurements from US20210300936A1, “PYRAZOLOTRIAZOLOPYRIMIDINE DERIVATIVES AS A2A RECEPTOR ANTAGONIST” (BEIGENE, LTD., priority 2018, published 2021).

This experiment deals with human A2A receptor (A2AR) (Homo sapiens, UniProt P29274). Nature of the experiment: Luciferase reporter assay (HEK293-A2AR-luc2p/CRE/Hygro cells, 3 nM CGS21680). Type of experiment: cell-based. Particulars: 3 nM CGS21680, 5 h incubation. Here is the method: HEK293 cells were maintained in Dulbecco's modified Eagle's medium (DMEM, Gibco) supplemented with 10% fetal bovine serum (FBS, Thermo Scientific), 100 units/mL penicillin (Gibco), and 0.1 mg/mL streptomycin (Gibco) in a humidified 37° C. environment with 5% C02. Plasmid encoding wild-type human A2A receptor (A2AR) (in pcDNA3.1) was synthesized by Genscript (Nanjing, China). Transfection of the plasmids was performed in 6-well plates with 4×10^5 cells using Lipofectamin 2000 (ThermoFisher Scientific) according to the instruction of the manufacturer. Cell clones that stably express A2AR were established and maintained in the same complete medium as the HEK293 cells in addition of G-418 (Gibico). Expression level of A2AR in each single cell clone was determined using immunoblotting and FACS method. HEK293-A2AR stable cells were then transfected with pGL4.29[luc2P/CRE/Hygro] (Promega) luciferase reporter plasmid for establishing the HEK293-A2AR-luc2p/CRE/Hygro stable cell line.
Sequence of human A2A receptor (A2AR) (P29274 whole entry): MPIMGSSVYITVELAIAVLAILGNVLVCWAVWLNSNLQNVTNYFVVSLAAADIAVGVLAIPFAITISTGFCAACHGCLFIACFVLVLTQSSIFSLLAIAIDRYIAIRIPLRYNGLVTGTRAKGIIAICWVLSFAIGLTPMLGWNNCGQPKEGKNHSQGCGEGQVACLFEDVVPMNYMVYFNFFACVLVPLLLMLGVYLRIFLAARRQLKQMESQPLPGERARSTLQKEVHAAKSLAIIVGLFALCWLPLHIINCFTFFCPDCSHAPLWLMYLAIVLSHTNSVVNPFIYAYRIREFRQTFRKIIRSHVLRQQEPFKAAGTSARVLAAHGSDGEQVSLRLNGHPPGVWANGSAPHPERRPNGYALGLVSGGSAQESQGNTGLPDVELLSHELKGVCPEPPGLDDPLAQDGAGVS
HEK293-A2AR-luc2p/CRE/Hygro cells were seeded at a density of 5,000 cells/well in DMEM with 1% FBS and 1 U/mL adenosine deaminase (ADA) (Sigma). After 18 h, the cells were treated with 3 nM CGS21680 plus a series dilution of A2AR antagonist, the compounds disclosed herein at the concentration of 0.1˜10000 nM, prepared in DMEM with 1% FBS. After 5 h incubation, the luciferase activity in cells were measured using the Bright-Glo Luciferase Assay System (Promega) according to manufacturer's instructions. The luminescence signal was measured using a PHERAstar FS plate reader (BMG Labtech). […] Maximal luminescence intensity was determined in the presence of 3 nM CGS21680 and was set as 100%. The IC50 value was calculated from a dose dependent inhibition curve across the range of compound concentrations.
In general terms: Reporter assays use an easily measured gene product as a stand-in for the process of interest.

`COCCOc1cc(F)c(N2CCN(C(=O)C(c3ccccc3)n3ncc4c3nc(N)n3nc(-c5ccco5)nc43)CC2)cc1F` (stereo not shown) [Compound A57, 2-(5-amino-2-(furan-2-yl)-7H-pyrazolo[4,3-e][1,2,4]triazolo[1,5-c]pyrimidin-7-yl)-1-(4-(2,5-difluoro-4-(2-methoxyethoxy)phenyl)piperazin-1-yl)-2-phenylethan-1-one] returned an IC50 of 5.3 nM. This lies in the single-digit nanomolar range.

`CC(C)CC(C(=O)N1CCN(c2ccc(F)cc2F)CC1)n1ncc2c1nc(N)n1nc(-c3ccco3)nc21` (stereo not shown) [Compound A22, 2-(5-amino-2-(furan-2-yl)-7H-pyrazolo[4,3-e][1,2,4]triazolo[1,5-c]pyrimidin-7-yl)-1-(4-(2,4-difluorophenyl)piperazin-1-yl)-4-methylpentan-1-one] registered an IC50 of 1.5 nM. Compared with the last compound, the IC50 is about 3.5-fold lower.

Regarding `CC(C(=O)N1CCCC1)(c1ccccc1)n1ncc2c1nc(N)n1nc(-c3ccco3)nc21` (stereo not shown) [Compound B23, 2-(5-amino-2-(furan-2-yl)-7H-pyrazolo[4,3-e][1,2,4]triazolo[1,5-c]pyrimidin-7-yl)-2-phenyl-1-(pyrrolidin-1-yl)propan-1-one], the concentration for half-maximal inhibition (IC50) was found to be 24.9 nM.

Compound `CCC(C(=O)N1CCN(c2ccc(OCCOC)cc2)CC1)(c1ccccc1)n1ncc2c1nc(N)n1nc(-c3ccco3)nc21` (stereo not shown) [Compound A84, 2-(5-amino-2-(furan-2-yl)-7H-pyrazolo[4,3-e][1,2,4]triazolo[1,5-c]pyrimidin-7-yl)-1-(4-(4-(2-methoxyethoxy)phenyl)piperazin-1-yl)-2-phenylbutan-1-one] returned an IC50 of 28.3 nM.

For `CCCCC(C(=O)N1CCN(c2ccc(OCCOCCOC)cc2)CC1)n1cc2c(nc(N)n3nc(-c4ccco4)nc23)n1` (stereo not shown) [Compound C11, 2-(5-amino-2-(furan-2-yl)-8H-pyrazolo[4,3-e][1,2,4]triazolo[1,5-c]pyrimidin-8-yl)-1-(4-(4-(2-(2-methoxyethoxy)ethoxy)phenyl)piperazin-1-yl)hexan-1-one], the IC50 was 118 nM.

With `CNCCOc1ccc(N2CCN(C(=O)C(C)n3ncc4c3nc(N)n3nc(-c5ccco5)nc43)CC2)cc1` (stereo not shown) [Compound A30, 2-(5-amino-2-(furan-2-yl)-7H-pyrazolo[4,3-e][1,2,4]triazolo[1,5-c]pyrimidin-7-yl)-1-(4-(4-(2-(methylamino)ethoxy)phenyl)piperazin-1-yl)propan-1-one], inhibition was half-maximal at 22 nM (IC50). This IC50 is about 5.4-fold lower than that of the compound before.

`CC(C(=O)N1CCN(c2ccc(C(=O)NC3CCCCC3)cc2)CC1)(c1ccccc1)n1ncc2c1nc(N)n1nc(-c3ccco3)nc21` (stereo not shown) [Compound A98, 4-(4-(2-(5-amino-2-(furan-2-yl)-7H-pyrazolo[4,3-e][1,2,4]triazolo[1,5-c]pyrimidin-7-yl)-2-phenylpropanoyl)piperazin-1-yl)-N-cyclohexylbenzamide]: the 50% inhibitory concentration (IC50) came out at 7.2 nM.

Take `COCCOc1ccc(N2CCN(C(=O)[C@@](C)(c3ccccc3)n3ncc4c3nc(N)n3nc(-c5ccco5)nc43)CC2)cc1F` [Compound A66b, (R)-2-(5-amino-2-(furan-2-yl)-7H-pyrazolo[4,3-e][1,2,4]triazolo[1,5-c]pyrimidin-7-yl)-1-(4-(3-fluoro-4-(2-methoxyethoxy)phenyl)piperazin-1-yl)-2-phenylpropan-1-one]: the IC50 came out at 3.3 nM.

As for `Nc1nc2c(cnn2C(C(=O)N2CCc3ccccc3C2)c2ccccc2)c2nc(-c3ccco3)nn12` (stereo not shown) [Compound B3, 2-(5-amino-2-(furan-2-yl)-7H-pyrazolo[4,3-e][1,2,4]triazolo[1,5-c]pyrimidin-7-yl)-1-(3,4-dihydroisoquinolin-2(1H)-yl)-2-phenylethan-1-one], the IC50 amounted to 1.9 nM. This IC50 is about 1.7-fold lower than that of the compound before.

Compound `COCCOc1ccc(N2CCN(C(=O)C(COC)n3ncc4c3nc(N)n3nc(-c5ccco5)nc43)CC2)cc1` (stereo not shown) [Compound A26, 2-(5-amino-2-(furan-2-yl)-7H-pyrazolo[4,3-e][1,2,4]triazolo[1,5-c]pyrimidin-7-yl)-3-methoxy-1-(4-(4-(2-methoxyethoxy)phenyl)piperazin-1-yl)propan-1-one] had a half-maximal inhibitory concentration (IC50) of 43.8 nM.

The compound `Nc1nc2c(cnn2C(C(=O)N2CCc3cccnc3C2)c2ccccc2)c2nc(-c3ccco3)nn12` (stereo not shown) [Compound B9, 2-(5-amino-2-(furan-2-yl)-7H-pyrazolo[4,3-e][1,2,4]triazolo[1,5-c]pyrimidin-7-yl)-1-(5,8-dihydro-1,7-naphthyridin-7(6H)-yl)-2-phenylethan-1-one] displayed an IC50 of 3.4 nM.

Regarding `COCCOc1ccc(N2CCN(C(=O)C(C)(c3ccccc3OC)n3ncc4c3nc(N)n3nc(-c5ccco5)nc43)CC2)cc1` (stereo not shown) [Compound A93, 2-(5-amino-2-(furan-2-yl)-7H-pyrazolo[4,3-e][1,2,4]triazolo[1,5-c]pyrimidin-7-yl)-1-(4-(4-(2-methoxyethoxy)phenyl)piperazin-1-yl)-2-(2-methoxyphenyl)propan-1-one], it took 0.6 nM to reach half-maximal inhibition (IC50).

`COCCOc1ccc(N2CCN(C(=O)C(c3ccccc3)n3ncc4c3nc(N)n3nc(-c5ccco5)nc43)CC2)c(F)c1F` (stereo not shown) [Compound A56, 2-(5-amino-2-(furan-2-yl)-7H-pyrazolo[4,3-e][1,2,4]triazolo[1,5-c]pyrimidin-7-yl)-1-(4-(2,3-difluoro-4-(2-methoxyethoxy)phenyl)piperazin-1-yl)-2-phenylethan-1-one] gave an IC50 of 1.7 nM.

The compound `Nc1nc2c(cnn2C(C(=O)N2CCc3ccccc3C2)c2ccccc2)c2nc(-c3ccco3)nn12` (single isomer, unassigned) [Compound B3a] yielded an IC50 of 21.6 nM.

As to `C[C@@](C(=O)N1CCN(c2ccc(OCCN3CCOCC3)cc2)CC1)(c1ccccc1)n1ncc2c1nc(N)n1nc(-c3ccco3)nc21` [Compound A80a, (S)-2-(5-amino-2-(furan-2-yl)-7H-pyrazolo[4,3-e][1,2,4]triazolo[1,5-c]pyrimidin-7-yl)-1-(4-(4-(2-morpholinoethoxy)phenyl)piperazin-1-yl)-2-phenylpropan-1-one], the IC50 was 7.4 nM.

Regarding `COCCOc1ccc(N2CCN(C(=O)C(c3ccccc3)n3ncc4c3nc(N)n3nc(-c5ccco5)nc43)C(C)C2)cc1` (single isomer, unassigned) [Compound A50b], half-maximal inhibition (IC50) required 1 nM.

In the case of `CC(C(=O)N1CCN(c2ccc(OCCN)cc2)CC1)n1cc2c(nc(N)n3nc(-c4ccco4)nc23)n1` (stereo not shown) [Compound C13, 2-(5-amino-2-(furan-2-yl)-8H-pyrazolo[4,3-e][1,2,4]triazolo[1,5-c]pyrimidin-8-yl)-1-(4-(4-(2-aminoethoxy)phenyl)piperazin-1-yl)propan-1-one], half-maximal inhibition (IC50) was put at 12.7 nM.

Regarding `CC(C(=O)N1CC2(COC2)C1)(c1ccccc1)n1ncc2c1nc(N)n1nc(-c3ccco3)nc21` (stereo not shown) [Compound B22, 2-(5-amino-2-(furan-2-yl)-7H-pyrazolo[4,3-e][1,2,4]triazolo[1,5-c]pyrimidin-7-yl)-2-phenyl-1-(2-oxa-6-azaspiro[3.3]heptan-6-yl)propan-1-one], the IC50 turned out to be 16 nM. This IC50 and that of the compound before are within 1.5-fold of each other.

Compound `CCCC(C(=O)N1CCN(c2ccc(OCCOC)c(F)c2)CC1)n1ncc2c1nc(N)n1nc(-c3ccco3)nc21` (stereo not shown) [Compound A53, 2-(5-amino-2-(furan-2-yl)-7H-pyrazolo[4,3-e][1,2,4]triazolo[1,5-c]pyrimidin-7-yl)-1-(4-(3-fluoro-4-(2-methoxyethoxy)phenyl)piperazin-1-yl)pentan-1-one] came in with an IC50 of 5 nM.
